Measurements published in paper PMC3038857, “Using Nuclear Receptor Activity to Stratify Hepatocarcinogens” (PLoS ONE, 2011).
Like-named read-outs stand apart in the source and are kept apart here.

How the values were obtained:
[1] = biological target: T1, PPARg (PPARG) (Homo sapiens, UniProt P37231); test: NVS_NR_hPPARg: Human PPARg Fluorescent Ligand (cell-free HTS); format: binding
T1 sequence (P37231 1-505): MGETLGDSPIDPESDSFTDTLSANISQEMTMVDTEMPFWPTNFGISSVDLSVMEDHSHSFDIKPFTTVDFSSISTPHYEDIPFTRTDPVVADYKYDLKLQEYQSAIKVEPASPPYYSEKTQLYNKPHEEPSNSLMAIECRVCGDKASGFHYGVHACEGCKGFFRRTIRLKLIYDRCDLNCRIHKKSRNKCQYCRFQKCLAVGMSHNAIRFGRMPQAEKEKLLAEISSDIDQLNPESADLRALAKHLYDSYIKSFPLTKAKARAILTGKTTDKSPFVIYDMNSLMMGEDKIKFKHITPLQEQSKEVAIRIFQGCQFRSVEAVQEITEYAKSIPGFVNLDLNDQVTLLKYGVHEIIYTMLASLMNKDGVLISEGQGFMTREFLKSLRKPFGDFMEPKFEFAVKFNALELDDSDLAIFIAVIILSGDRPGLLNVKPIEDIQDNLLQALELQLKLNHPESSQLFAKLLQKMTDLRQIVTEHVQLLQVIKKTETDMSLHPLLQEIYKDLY
Source text: (§1) These are a collection of biochemical assays measuring binding constants and enzyme inhibition values. Chemicals were initially screened at a single concentration in duplicate wells at a concentration of 10 [drawing 63] M for cytochrome P-450 assays and 25 [drawing 64] M for all others. […] These assays were run by Caliper Life Sciences (Hanover, MD) under contract to EPA. Short assay descriptions are available at: http://www.caliperls.com/products/contract-research/in-vitro/.
(§2) Cell-free HTS Assays: A collection of biochemical assays measuring binding constants and enzyme inhibition values. […] These assays were run by Caliper Life Sciences (Hanover, MD) under contract to EPA. Short assay descriptions are available at http://www.caliperls.com/products/contract-research/in-vitro/. Values for all endpoints were imported into GeneData Screener (Basel, Switzerland) and normalised to solvent controls from the same plate as the tested compounds and expressed as percent of neutral control. Concentration-response curves were fit in GeneData Screener (Basel, Switzerland) Condeseo module using the Hill equation and AC50 values were determined. […] Detailed description of the methods, data and analysis methods for this dataset are described in a separate publication.

[2] = biological target: T2, LXRb (NR1H2) (Homo sapiens, UniProt P55055); test: ATG_LXRb_TRANS: Factorial reporter gene assay (HepG2); format: cell-based
T2 construct: expressed in transfected cells; host or cells: HepG2
T2 sequence (P55055 1-460): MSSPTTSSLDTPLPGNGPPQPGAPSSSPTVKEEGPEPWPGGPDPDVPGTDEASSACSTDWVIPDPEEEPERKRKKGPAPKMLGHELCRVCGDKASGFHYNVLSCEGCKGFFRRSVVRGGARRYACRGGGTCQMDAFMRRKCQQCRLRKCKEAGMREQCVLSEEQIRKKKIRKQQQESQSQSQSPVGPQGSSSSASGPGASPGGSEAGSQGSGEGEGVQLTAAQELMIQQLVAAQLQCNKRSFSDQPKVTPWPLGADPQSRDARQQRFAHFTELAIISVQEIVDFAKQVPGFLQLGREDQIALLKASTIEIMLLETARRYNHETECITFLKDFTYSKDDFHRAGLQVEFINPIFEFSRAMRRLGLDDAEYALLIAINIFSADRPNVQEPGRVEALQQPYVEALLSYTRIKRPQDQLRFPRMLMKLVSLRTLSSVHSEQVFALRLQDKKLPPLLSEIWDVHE
Procedure: A multiple reporter transcription unit (MRTU) library consisting of 48 transcription factor binding sites was transfected into the HepG2 human liver hepatoma cell line. In addition to the cis-acting reporter genes (CIS), a modification of the approach was used to generate a trans-system (TRANS) with a mammalian one-hybrid assay consisting of an additional 25 MRTU library reporting the activity of nuclear receptor super-family members. […] These assays were performed by Attagene Inc. (Morrisville NC) under contract to EPA.
In addition to the cis-acting reporter genes (CIS), a modification of the approach was used to generate a trans-system (TRANS) with a mammalian one-hybrid assay consisting of an additional 25 MRTU library reporting the activity of nuclear receptor super-family members. […] Chemicals were then tested in the CIS and TRANS assays at seven concentrations starting at the MTC and followed by three-fold serial dilutions. These assays were performed by Attagene Inc. (Morrisville NC) under contract to EPA. Detailed description of the methods, data and analysis methods for this dataset will be presented in a separate publication.

[3] = tested on: ABCB1; test: CLZD_ABCB1: Change in expression of ABCB1 (primary human hepatocytes); format: cell-based; details: 24 hr
Outline: (§3)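 Read-out: mRNA change by multiplexed quantitative nuclease protection assay. Primary human hepatocytes; 5 concentrations, 0.004-40 µM; exposures 6, 24, 48 hr.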

[4] = tested on: CYP2B6; test: CLZD_CYP2B6: Change in expression of CYP2B6 (primary human hepatocytes); format: cell-based; details: 24 hr
Outline: as §3

[5] = tested on: AR (androgen receptor); test: NVS_NR_hAR: Human AR 3H-Methyltrienolone (cell-free HTS); format: binding
Source text: as §1, §2

[6] = scale not given, looks like -log10 of molar active concentration, 0 = no activity
[7] = HepG2, scale not given, looks like -log10 of molar active concentration, 0 = no activity

| Compound | NVS_NR_hPPARg [1, 6] | ATG_LXRb_TRANS [2, 7] | CLZD_ABCB1_24 [3, 6] | CLZD_CYP2B6_24 [4, 6] | NVS_NR_hAR [5, 6] | CLZD_CYP2B6_24 [4] | NVS_NR_hAR [5] | CLZD_ABCB1_24 [3] | NVS_NR_hPPARg [1] | ATG_LXRb_TRANS ([2]; HepG2 reporter) |
| --- | --- | --- | --- | --- | --- | --- | --- | --- | --- | --- |
| COC(=O)c1ccccc1CS(=O)(=O)NC(=O)Nc1nc(OC)cc(OC)n1 [r33] | 0 | 4.347 | 0 | 0 | 0 |  |  |  |  |  |
| CC(C)N1C(=O)c2ccccc2NS1(=O)=O [r37] | 0 | 4.357 | 0 | 0 | 0 |  |  |  |  |  |
| COc1ccc(-c2ccccc2)cc1NNC(=O)OC(C)C [r38] | 0 | 0 | 0 | 5.354 | 0 |  |  |  |  |  |
| Cc1c(COC(=O)C2C(/C=C(\Cl)C(F)(F)F)C2(C)C)cccc1-c1ccccc1 (stereo not drawn) [r39] | 0 | 0 | 4.829 | 5.042 | 0 |  |  |  |  |  |
| CC(C)(c1ccc(O)cc1)c1ccc(O)cc1 [r40] | 0 | 0 | 0 | 0 | 4.747 |  |  |  |  |  |
| OB(O)O [r41] | 0 | 0 | 0 |  | 0 |  |  |  |  |  |
| O=C(Nc1ccccc1-c1ccc(Cl)cc1)c1cccnc1Cl [r42] | 0 | 0 | 0 | 5.164 | 0 |  |  |  |  |  |
| CCC(C)n1c(=O)[nH]c(C)c(Br)c1=O (stereo not drawn) [r43] | 0 | 0 | 0 | 4.936 | 0 |  |  |  |  |  |
| N#Cc1cc(Br)c(O)c(Br)c1 [r44] | 0 | 0 | 0 | 0 | 0 |  |  |  |  |  |
| CC(C)N1C(=O)N(c2ccccc2)CS/C1=N\C(C)(C)C [r45] | 0 | 0 | 4.531 | 5.247 | 0 |  |  |  |  |  |
| CCCCOCN(C(=O)CCl)c1c(CC)cccc1CC [r46] | 0 | 0 | 0 | 5.29 | 0 |  |  |  |  |  |
| C=CCOC(=O)C(C)(C)OC(=O)c1cc(-n2c(=O)cc(C(F)(F)F)n(C)c2=O)ccc1Cl [r47] | 0 | 0 | 0 |  | 0 |  |  |  |  |  |
| CCC(C)Nc1c([N+](=O)[O-])cc(C(C)(C)C)cc1[N+](=O)[O-] (stereo not drawn) [r48] | 0 | 0 | 0 | 5.323 | 0 |  |  |  |  |  |
| CCSC(=O)N(CC(C)C)CC(C)C [r49] | 0 | 0 | 0 | 6.583 | 0 |  |  |  |  |  |
| O=C1C2CC=CCC2C(=O)N1SC(Cl)(Cl)Cl (stereo not drawn) [r51] | 0 | 0 | 0 | 0 | 0 |  |  |  |  |  |
| CNC(=O)Oc1cccc2ccccc12 [r52] |  | 0 | 0 |  | 0 |  |  |  |  |  |
| CC1=C(C(=O)Nc2ccccc2)SCCO1 [r53] | 0 | 0 | 0 | 4.923 | 0 |  |  |  |  |  |
| CCOC(=O)C(Cl)Cc1cc(-n2nc(C)n(C(F)F)c2=O)c(F)cc1Cl (stereo not drawn) [r54] | 0 | 0 | 0 | 5.057 | 0 |  |  |  |  |  |

| Compound | NVS_NR_hPPARg [1, 6] | ATG_LXRb_TRANS [2, 7] | CLZD_ABCB1_24 [3, 6] | CLZD_CYP2B6_24 [4, 6] | NVS_NR_hAR [5, 6] | CLZD_CYP2B6_24 [4] | NVS_NR_hAR [5] | CLZD_ABCB1_24 [3] | NVS_NR_hPPARg [1] | ATG_LXRb_TRANS ([2]; HepG2 reporter) |
| --- | --- | --- | --- | --- | --- | --- | --- | --- | --- | --- |
| Nc1cnn(-c2ccccc2)c(=O)c1Cl [r56] | 0 | 0 | 0 | 0 | 0 |  |  |  |  |  |
| COc1cc(Cl)c(OC)cc1Cl [r57] | 0 | 0 | 0 | 5.434 | 0 |  |  |  |  |  |
| N#Cc1c(Cl)c(Cl)c(Cl)c(C#N)c1Cl [r58] | 6.265 | 0 | 0 | 0 | 0 |  |  |  |  |  |
| CC(C)OC(=O)Nc1cccc(Cl)c1 [r59] | 0 | 0 | 0 | 4.931 | 4.936 |  |  |  |  |  |
| COc1nc(C)nc(NC(=O)NS(=O)(=O)c2ccccc2Cl)n1 [r62] | 0 | 0 | 0 | 0 | 0 |  |  |  |  |  |
| COc1nc(C)nc(NC(=O)NS(=O)(=O)c2ccccc2Cl)n1 [r63] | 0 | 0 | 0 | 0 | 0 |  |  |  |  |  |
| Cc1ccccc1CO[C@@H]1C[C@@]2(C(C)C)CC[C@]1(C)O2 [r64] | 0 | 0 | 0 | 0 | 0 |  |  |  |  |  |
| C#CCC1=C(C)[C@H](OC(=O)[C@H]2[C@H](C=C(C)C)C2(C)C)CC1=O [r249] |  |  |  |  |  | 5.011 | 4.991 |  |  |  |
| CCCN(CCC)c1c([N+](=O)[O-])cc(C(F)(F)F)c(N)c1[N+](=O)[O-] [r252] |  |  |  |  |  | 5.057 |  |  |  |  |
| CSc1nc(NC(C)C)nc(NC(C)C)n1 [r256] |  |  |  |  |  | 5.237 |  |  |  |  |
| CCCC1COC(Cn2cncn2)(c2ccc(Cl)cc2Cl)O1 (stereo not drawn) [r262] |  |  |  |  |  | 6.312 | 4.367 | 5.099 |  |  |
| CC(C)=CC1C(C(=O)OCc2coc(Cc3ccccc3)c2)C1(C)C (stereo not drawn) [r280] |  |  |  |  |  | 5.057 |  |  | 4.616 |  |
| CCc1ccc(C(=O)NN(C(=O)c2cc(C)cc(C)c2)C(C)(C)C)cc1 [r290] |  |  |  |  |  | 5.246 |  |  |  |  |
| CCc1nn(C)c(C(=O)NCc2ccc(C(C)(C)C)cc2)c1Cl [r291] |  |  |  |  |  | 5.278 |  |  |  | 6.337 |
| COc1cccc(C(=O)NN(C(=O)c2cc(C)cc(C)c2)C(C)(C)C)c1C [row 202] |  |  |  |  |  | 5.305 |  |  |  |  |
| CCc1cccc(C)c1N(C(=O)CCl)C(C)COC (stereo not drawn) [row 208] |  |  |  |  |  | 5.27 |  |  |  |  |
| CCN(CC)C(=O)C(C)Oc1cccc2ccccc12 (stereo not drawn) [row 219] |  |  |  |  |  | 4.599 | 5.12 |  |  |  |
| CC(C)Oc1cc(-n2nc(C(C)(C)C)oc2=O)c(Cl)cc1Cl [row 225] |  |  |  |  |  | 6.222 |  |  |  |  |
